Oligonucleotides are written 5' to 3', each unit as a sugar letter and its base; * is a phosphorothioate linkage, no mark a phosphodiester; rarer units and linkages stand in square brackets, end groups in braces. Plain capitals give the bases only. {NH2-C6} = C6 amine reactive group for conjugation; {Alk-cyHex} = alkyne-cyclohexyl conjugation group; [invAb] = inverted abasic deoxyribose residue; [C6-SS-C6] = C6-disulfide-C6 linker; d = 2'-deoxy (DNA); m = 2'-O-methyl; f = 2'-fluoro
What follows are substances tested on myostatin mRNA (assay: MSTN expression in triceps of mice by qPCR TaqMan assay (Example 7)). Details: Day 22, mice, 3 mg/kg single injection on Day 1, n=4.
Assay type: in vivo
Protocol: On Study Day 1, mice were injected with either isotonic saline (vehicle control) or 3 mg/kg (mpk) of RNAi agent formulated in isotonic saline according to the following dosing Groups:
The RNAi agents in Example 7 were synthesized having nucleotide sequences directed to target the MSTN gene, and groups 1 and 3 included a functionalized amine reactive group (NH2-C6) at the 5′ terminal end of the sense strand to facilitate conjugation to L4 which could then be conjugated to the small molecule targeting ligand Compound 45b. Group 2 included an (Alk-cyHex)s (see Table 28 for structure details) which was conjugated to the small molecule targeting ligand Compound 45b. The myostatin RNAi agents further included a PEG48+C22 PK/PD modulator, which was linked to the 3′ end of the sense strand.
Four (4) mice were dosed in each Group (n=4). Mice were sacrificed on study day 22, and total myostatin mRNA was isolated from the triceps. Triceps were harvested from right front limb. Each sample was snap-frozen in percellys tubes and stored in a −80° C. freezer until assays were completed. Relative MSTN expression was determined by qPCR TaqMan Assay on muscle tissue.
“AD06326: AS: usGfsusUfaCfagcaaGfaUfcAfuGfgCfsc; SS: (NH2-C6)s(invAb)sggccaugaUfCfUfugcuguaacas(invAb)(C6-SS-C6)dT (antisense mU*fG*mU*fUmAfCmAmGmCmAmAfGmAfUmCfAmUfGmGfC*mC; sense {NH2-C6}*[invAb]*mGmGmCmCmAmUmGmAfUfCfUmUmGmCmUmGmUmAmAmCmA*[invAb][C6-SS-C6]dT; siRNA; Compound 45b ligand via L4 on sense 5' amine, PEG48+C22 at sense 3')” was tested, and the “Average relative MSTN expression, Relative Expression” value (from here on “Average relative MSTN expression”) was 0.296.
For “AD06916: AS: usGfsusUfaCfagcaaGfaUfcAfuGfgCfsc; SS: (NH2-C6)s(invAb)sggccaugaUfCfUfugcuguaacas(invAb)s(C6-SS-C6)dT (antisense mU*fG*mU*fUmAfCmAmGmCmAmAfGmAfUmCfAmUfGmGfC*mC; sense {NH2-C6}*[invAb]*mGmGmCmCmAmUmGmAfUfCfUmUmGmCmUmGmUmAmAmCmA*[invAb]*[C6-SS-C6]dT; siRNA; Compound 45b ligand via L4 on sense 5' amine, PEG48+C22 at sense 3')”, the “Average relative MSTN expression” value was 0.295.
With “AD06912: AS: usGfsusUfaCfagcaaGfaUfcAfuGfgCfsc; SS: (Alk-cyHex)s(invAb)sggccaugaUfCfUfugcuguaacas(invAb)(C6-SS-C6)dT (antisense mU*fG*mU*fUmAfCmAmGmCmAmAfGmAfUmCfAmUfGmGfC*mC; sense {Alk-cyHex}*[invAb]*mGmGmCmCmAmUmGmAfUfCfUmUmGmCmUmGmUmAmAmCmA*[invAb][C6-SS-C6]dT; siRNA; Compound 45b ligand on sense 5' Alk-cyHex, PEG48+C22 at sense 3')” the “Average relative MSTN expression” value was 0.253.
